Source: US11116767B2, “3,5-disubstituted pyrazoles useful as checkpoint kinase 1 (Chk1) inhibitors, and their preparations and applications” (PHARMAENGINE, INC., priority 2016, dated 2021)

Legend:
[1] = Human liver S9 metabolic stability; type: in vitro ADME; conditions: for Percentage Remaining %: 1 μM, 37° C.
Protocol: Compounds (1 μM) were incubated with human liver S9 (from BD Gentest) at final liver microsomal protein concentration of 0.5 mg/mL for 0, 5, 15, 30, 45 min at 37° C. The remaining compounds in the reaction were measured by LC-MS/MS. The half-life (T½) 0.693/K (K is the rate constant from a plot of ln [concentration] vs. incubation time).

Chk1 = biological target: T1, Chk1 (Homo sapiens, UniProt O14757); assay: biochemical; conditions: ADP-Glo; read-out: Chk1 in vitro enzyme activity (grade)
T1 construct: purchased BPS 40039
T1 sequence (O14757 1-476): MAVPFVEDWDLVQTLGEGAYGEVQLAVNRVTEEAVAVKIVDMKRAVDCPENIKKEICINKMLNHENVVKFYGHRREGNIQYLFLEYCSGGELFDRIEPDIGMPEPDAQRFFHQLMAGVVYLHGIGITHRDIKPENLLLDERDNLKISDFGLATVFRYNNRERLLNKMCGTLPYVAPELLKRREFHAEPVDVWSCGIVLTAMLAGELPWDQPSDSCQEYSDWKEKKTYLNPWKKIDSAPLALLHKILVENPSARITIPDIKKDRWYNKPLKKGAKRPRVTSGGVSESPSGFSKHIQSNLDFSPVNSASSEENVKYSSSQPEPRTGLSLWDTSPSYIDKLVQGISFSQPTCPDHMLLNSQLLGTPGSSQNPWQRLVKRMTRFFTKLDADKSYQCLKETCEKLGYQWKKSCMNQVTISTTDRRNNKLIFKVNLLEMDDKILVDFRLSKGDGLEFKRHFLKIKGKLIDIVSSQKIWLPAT

HT-29 = assay: Cancer cell growth inhibition assay (CellTiter-Glo), HT-29; type: cell-based, Human; conditions: Homo sapiens, HT-29; 72 hours, cellular ATP content; read-out: HT-29 anti cell proliferation activity (grade)
Protocol: (§1) Human cancer cell lines were purchased from American Type Culture Collection (Manassas, Va.). The trypsinized cells were diluted to required volume at densities of 44,000 cells/ml. 90 ul cell slurry was dispensed per well in 96-well flat-bottomed plates with the recommended culture medium. The cells were incubated for 24 hours at 37° C. in 5% CO2 under humidified condition. The cells were then incubated with compounds at various concentrations for 72 hours in culture medium supplemented with 0.5% (v/v) FBS. Growth inhibition was assessed by assay of cellular ATP content using CellTiter-Glo reagent to each well. Luminesce was read on Envision. The inhibition rate (%)=(Max signal compound signal)/(Max signal Min signal)×100.

Chk2 = biological target: T2, Chk2 (Homo sapiens, UniProt O96017); assay: biochemical; conditions: ADP-Glo; read-out: Chk2 in vitro enzyme activity (grade)
T2 construct: purchased Carna 02-162
T2 sequence (O96017 whole entry): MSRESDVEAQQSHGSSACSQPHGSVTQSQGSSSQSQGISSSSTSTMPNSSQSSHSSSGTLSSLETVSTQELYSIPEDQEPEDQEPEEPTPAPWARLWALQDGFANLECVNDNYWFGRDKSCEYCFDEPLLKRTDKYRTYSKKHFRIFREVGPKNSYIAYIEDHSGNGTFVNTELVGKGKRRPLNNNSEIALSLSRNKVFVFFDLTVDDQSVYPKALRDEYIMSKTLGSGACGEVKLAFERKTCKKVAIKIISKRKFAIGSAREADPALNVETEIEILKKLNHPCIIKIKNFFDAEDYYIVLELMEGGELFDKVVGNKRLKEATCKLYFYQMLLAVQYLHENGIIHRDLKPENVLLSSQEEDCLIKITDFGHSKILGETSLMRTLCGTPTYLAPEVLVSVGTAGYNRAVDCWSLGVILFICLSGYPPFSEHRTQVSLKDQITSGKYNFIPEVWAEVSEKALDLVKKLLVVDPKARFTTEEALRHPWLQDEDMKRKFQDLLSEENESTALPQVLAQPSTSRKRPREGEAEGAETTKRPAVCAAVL

HT-29 tumor xenograft = assay: HT-29 xenograft model, alone or in combination with CPT-11; type: in vivo, Balb/c nude mice; conditions: for % T/C value: 40 mg/kg, IV
Protocol: (§2) Female Balb/c nude mice at 7-8 weeks of age (Body weights between 17-18g) were purchased from Hunan SJA Laboratory Animal Co., Ltd. HT-29 cells were cultured in DMEM culture medium containing 10% fetal bovine serum and LoVo cells were cultured in RPMI 1640 culture medium containing 10% fetal bovine serum. The cells were harvested and washed with serum free culture medium. Finally, the cells were suspended at a cell density of […] in serum free culture medium for implantation. 5 million cells per animal suspended in 0.1 ml serum free culture medium and 1.1 matrigel were injected into the right flank of the animals after a one, week acclimation period. When average tumor volume reached acceptable tumor size (100-200 mm^3) and shape, the animals were randomly assigned into treatment groups.
In HT-29 tumor xenograft model, the animals were treated with a single compound, a ChK1 inhibitor or CPT-11, or a combination with CPT11. […] The animals well tolerated each treatment in the HT-29 colon cancer in nude mice model.

[2] = Pharmacokinetics study in rats, intravenous; type: in vivo, SD rats; conditions: rat, in vivo, iv
Protocol: Compounds were formulated in 30% SEB-β-CD (Zhiyuan Bio-technology) with 1 molar equivalents of HCl (pH adjusted to 3-5). Male SD rats (280-350 g) were purchased from Medical Laboratory Animal Center of Guangdong. Three rats were used for each PK study. […] At various time points after compound administration, approximately 0.2˜0.3 mL of blood was collected by cutting the end of tail into tubes containing K2-EDTA. The plasma was separated via centrifugation and stored at −80° C. A PE Sciex API-3000 LC-MS/MS system (Applied Biosystems, Inc.) was used to analyze compound concentrations in plasma.
PK studies of ChK1 inhibitors were conducted in rats after intravenous administration at 10 mg/kg. […]. […]

MDA-MB-231 = assay: Cancer cell growth inhibition assay (CellTiter-Glo), MDA-MB-231; type: cell-based, Human; conditions: Homo sapiens, MDA-MB-231; 72 hours, cellular ATP content; read-out: MDA-MB-231 anti cell proliferation activity (grade)
Protocol: as §1

[3] = test system: LoVo colon cancer xenograft; assay: LoVo colon xenograft model; type: in vivo, Balb/c nude mice
Protocol: as §2
Lovo colon cancer cells were implanted to establish the xenograft model in Balb/c nude mice. Compound 3 and LY2606368 were dissolved in 30% SEB-β-CD (Zhiyuan Bio-technology) with 1 molar equivalents of HCl. […]

[4] = test system: ChK1 phosphorylation (pChK1 S296) in HT-29 colon cancer cells; assay: Western blot analysis of ChK1 phosphorylation in HT-29 cells with SN-38; type: cell-based, Human; conditions: HT-29 cells pre-incubated with SN-38 (50 nM) 24 hours, then ChK1 inhibitor 3 hours

Structure (SMILES): COc1cc(F)cc(OCCCN)c1-c1cc(Nc2cnc(C#N)cn2)n[nH]1 [Compound 3, 5-(5-(2-(3-Aminopropoxy)-4-fluoro-6-methoxyphenyl)-1H-pyrazol-3-ylamino)pyrazine-2-carbonitrile]
- Percentage Remaining % ([1]; 0 min): 100.00%
- Percentage Remaining % ([1]; 5 min): 96.98%
- Percentage Remaining % ([1]; 15 min): 94.32%
- Percentage Remaining % ([1]; 30 min): 65.38%
- Percentage Remaining % ([1]; 45 min): 77.05%
- metabolic stability compared with LY2606368 ([1]; human liver S9): more metabolic stable than LY2606368
- half-life at 1 μM ([1]; human liver S9, 1 μM): 2.76 h
- IC50 (Chk1): ≤ 1 nM
- IC50 (HT-29): 10 to 50 nM
- IC50 (Chk2): 50 to 100 nM
- efficacy compared with LY-2606368, alone or with CPT-11 (HT-29 tumor xenograft; 40 mg/kg IV twice a week vs LY-2606368 15 mg/kg IV twice a week): more efficacious than the reference LY-2606368
- % T/C value (HT-29 tumor xenograft; twice a week plus CPT-11 (50 mg/kg, IV, once per week)): −9%
- % T/C value (HT-29 tumor xenograft; alone, twice a week): 26%
- effect on anti-tumor growth activity of CPT11 (HT-29 tumor xenograft; combination with CPT11): enhanced anti-tumor growth activity of CPT11
- AUC(0-inf) ([2]; male, SD, 10 mg/kg): 4640 ng·h/mL
- AUC(0-t) ([2]; male, SD, 10 mg/kg): 4530 ng·h/mL
- MRT ([2]; male, SD, 10 mg/kg): 2.8 h
- clearance ([2]; male, SD, 10 mg/kg): 38.3 mL/min/kg
- half-life ([2]; male, SD, 10 mg/kg): 3.8 h
- Vd ([2]; male, SD, 10 mg/kg, Vd): 12.3 L/kg
- Vd ([2]; male, SD, 10 mg/kg, Vss): 6.4 L/kg
- half-life and exposure compared with LY2606368 [2]: longer half-life and higher exposure than LY2606368
- IC50 (MDA-MB-231): 50 to 100 nM
- T/C value ([3]; 40 mg/kg, IV, twice a week): −77%
- tumor growth inhibition ([3]; LY2606368 15 mg/kg, Compound 3 10, 20, 40 mg/kg, IV, twice a week): significant tumor growth inhibition in a dose-dependent manner
- efficacy compared with LY2606368 at MTD dose ([3]; MTD dose): more efficacious than LY2606368
- inhibition of ChK1 phosphorylation (FIG. 2) [4]: potently inhibited ChK1 phosphorylation
